Laboratory results reported in patent publication US20240034785A1, “RXR-ALPHA BINDERS AND RXR-ALPHA/PLK1 MODULATORS” (NUCMITO PHARMACEUTICALS CO. LTD., priority 2020, published 2024).

Experiments:
cancer cells = assay: Mitotic progression of cancer cells (FACS analysis); format: cell-based; design: inhibitory effect on mitotic progression: RXRα dependence and other cancer cell lines (FACS): dose or concentration left out as unconfirmed
Description: Cells were harvested by trypsin digestion, washed with PBS, and fixed with ice-cold 70% ethanol overnight at 4° C. The fixed cells were then washed twice in PBS and treated for 10 min at room temperature with 0.5 μg/mL 4-6-diamidino-2-phenylindole (DAPI) in PBS and analyzed on a FACSCAN™ flow cytometer. Flow cytometry data were analyzed using CYTEXPERT.

cancer cell lines = assay: Western blot analysis of mitotic arrest, apoptosis and SAC activation in cancer cell lines; format: cell-based, human
[1] = test system: HepG2 liver cancer and THLE-2 nontumorous liver cells; assay: Western blot analysis of HepG2 and THLE-2 cells; format: cell-based, human; settings: 10 μM for 12 hr (FIG. 68)
HepG2 xenografts = HepG2 xenografts in nude mice; format: in vivo, mouse
Description: FIGS. 69 and 70 show the analysis of nude mice injected with HepG2 cells, where the mice were treated with compound A1 (80 mg/kg) once every two days. The tumor volume was monitored and recorded. Tumors excised at day 14 were shown in FIG. 69 and weight in FIG. 70 (±SEM; **p<0.01).
BALB/c nude mice (7-8 weeks old) were injected subcutaneously with 100 μL HepG2 cells (2×10^6). For treatment, mice were administered with compound A1 (80 mg/kg) diluted in corn oil once every two days. Body weights and tumor sizes were measured every 2 days with tumor volumes (V) calculated by the formula of (width)^2×length/2. The mice were sacrificed after 14 days of treatment and tumors were removed for additional assessments. Isolation and culture of mouse primary liver tumor cells
Livers or transplanted tumor from mouse were fixed in 4% neutral buffered formalin phosphate (pH 7.0) for periods not exceeding 24 hr and were subsequently embedded in paraffin. They were sliced into 4-μm sections for H&E (hematoxylin and eosin) staining, immunofluorescence and for immunohistochemistry. To examine hepatocytes, H&E stained-liver sections were analyzed with an image analysis system. For immunostaining, liver sections or tumor sections were incubated with an anti-γ-tubulin (1:200 dilution), anti-pS10-H3 (1:200 dilution), anti-γ-H2AX (1:200 dilution), or cleaved-caspase-3 (1:100 dilution) antibody. Positive cells or areas were counted and measured, respectively, for at least 10 fields.

HeLa cells = assay: MT nucleation activity at the centrosomes in cold-treated, reheated HeLa cells; format: cell-based, human; settings: reheated at 37° C., 10 μM (FIG. 59)
B16F10 and 4T1 cells = assay: Mitotic arrest and chromosome misalignment in B16F10 and 4T1 tumor cells; format: cell-based, mouse
HepG2 cells = assay: Centrosome immunofluorescence in metaphase HepG2 cells; format: cell-based, human
Description: Cells mounted on glass slides were fixed with methanol at −20° C. for 10 min, then permeabilized with 0.05% Triton X-100 in a PBS buffer for 8 min at 4° C., and blocked with 1% bovine serum in PBS for 30 min at room temperature, followed by incubation with primary antibodies at room temperature for 3 hr and detected by FITC-labeled anti-IgG (1:200), anti-goat IgG conjugated with Cy3 (1:200) at room temperature for 1 hr. The cells were costained with 40,6-diamidino-2-phenylindole (DAPI) (1:10,000 dilution) to visualize nuclei. The images were taken under a LEICA TCS SP8 confocal laser scanning microscope system or an LSM-510 confocal laser scanning microscope system.

Structure (SMILES): COc1ccc(CC(=O)N/N=C/c2c(O)ccc3ccccc23)cc1 [Compound A1, (E)-N′-((2-hydroxynaphthalen-1-yl)methylene)-2-(4-methoxyphenyl)acetohydrazide]
- mitotic progression of cancer cells (cancer cells): inhibited mitotic progression of cancer cells
- inhibitory effect on mitotic progression: RXRα dependence and other cancer cell lines (FACS) (cancer cells; indicated cell lines): RXRα dependent and observed in many other cancer cell lines
- apoptosis of cancer cells (cancer cell lines): induced apoptosis of cancer cells in a dose-dependent and RXRα-dependent manner
- activation of the spindle assembly checkpoint (SAC), mobility-shifted BubR1 (cancer cell lines; FIGS. 61, 62 and 68): accompanied with the activation of the spindle assembly checkpoint (SAC)
- nuclear morphology (mitotic catastrophe) (cancer cell lines; cancer cells treated with compound A1): exhibited multi-lobular, giant nuclear and/or highly fragmented/bursted nuclei
- induction of mitotic arrest and apoptosis (cancer cell lines; various cancer cell lines (HepG2, Bel-7402, SK-Hep-1), 12 hr (FIGS. 61 and 62)): observed
- inducing G2/M arrest, SAC activation, and apoptosis in HepG2 versus THLE-2 cells [1]: differential effects
- effects of compound A1 in normal liver tissues (HepG2 xenografts; normal liver tissues of HepG2 xenograft mice (FIG. 71)): not observed in normal liver tissues
- mitotic arrest and DNA damage response in normal tissues (HepG2 xenografts; normal tissues of kidney, intestine, spleen, and heart): no effect
- signs of overt toxicities (HepG2 xenografts; nude mice, 80 mg/kg once every two days, 14 days): without any signs of overt toxicities
- growth of HepG2 tumor (HepG2 xenografts; nude mice, subcutaneous HepG2 xenografts, 80 mg/kg in corn oil once every two days, 14 days (FIGS. 69 and 70)): strongly inhibited the growth of HepG2 tumor
- mitotic arrest, chromosome aberrations, DNA damage response, and caspase 3 activation in tumor cells (HepG2 xenografts; tumor specimens from HepG2 xenograft (FIG. 71)): induction of mitotic arrest, chromosome aberrations, DNA damage response, and caspase 3 activation in tumor cells
- α-tubulin nucleation (MT nucleation activity at the centrosomes) (HeLa cells): inhibited α-tubulin nucleation
- chromosomal aberrations (chromosome misalignment) (B16F10 and 4T1 cells; 10 μM for 2 hr (FIG. 67)): chromosomal aberrations
- mitotic arrest (B16F10 and 4T1 cells; 10 μM for 6 hr (FIG. 66)): caused mitotic arrest
- centrosomal aberrations (HepG2 cells): caused centrosomal aberrations
- level of PLK1-pT210 at the centrosome (HepG2 cells; HepG2 cells, 10 μM for 2 hr after release from TT block for 10 hr (FIG. 57)): reduced the level of PLK1-pT210
- centrosome maturation (γ-tubulin at the centrosomes) (HepG2 cells; HepG2 cells, 10 μM for 2 hr after release from TT block for 10 hr (FIG. 58)): suppressed centrosome maturation
